# In publication PMC6745035, “Novel tetrahydroacridine derivatives with iodobenzoic moieties induce G0/G1 cell cycle arrest and apoptosis in A549 non-small lung cancer and HT-29 colorectal cancer cells” (Molecular and Cellular Biochemistry, 2019):
# Tests used:
# Type in all cases: cell-based, human
# A549 cells [1] = experiment: Cell cycle analysis (PI, flow cytometry), A549; details: A549, 24 h, 10 µM
# Protocol: (§1) Then, compounds were added into the wells and cells were further incubated for 24 h. After incubation, monolayer and supernatant cells were harvested and washed in PBS. Then, cells were centrifuged (monolayer—1200 rpm for 10 min, supernatant 3500 rpm for 10 min) and fixed in cold 70% ethanol. Pellets were kept at 4 °C for at least 2 h. Prior to analysis, cells were centrifuged and re-suspended in RNAsi (type 1-A; Sigma Aldrich)—PBS working solution (200 µg/mL). Samples were incubated at 37 °C for 10 min. At the end, 3 µL of 2 mg/mL propidium iodide (PI) (Sigma Aldrich) solution was added to each sample. Samples were kept in the dark prior to analysis. Analysis was performed on BD Accuri C6 Flow Cytometry (Becton–Dickinson). Etoposide (Calbiochem) was used as a reference drug. Experiments were done in triplicates.
# HT-29 cells [2] = experiment: Apoptosis assay by annexin-V/PI double staining, HT-29; details: HT-29, 24 h, 25 µM; control 8.62%
# Protocol: (§2) Compounds were added to the cells and further incubated for 24 h. After treatment, monolayer and supernatant cells were harvested, washed with PBS and centrifuged (monolayer at 1200 rpm for 10 min, supernatant at 3500 rpm for 10 min). Then, cells were re-suspended in binding buffer and stained with 2 µL of Annexin-V and […] of PI (ANNEXIN-V—FITC Apoptosis Detection Kit, Immunostep) in the dark for 10 min at room temperature. Cells were analysed by BD Accuri C6 Flow Cytometry (Becton–Dickinson). Etoposide (Calbiochem) was used as a reference drug. Experiments were done in triplicates.
# HT-29 cells [3] = experiment: Cell cycle analysis (PI, flow cytometry), HT-29; details: HT-29, 24 h, 10 µM
# Protocol: as §1
# A549 cells [4] = experiment: Apoptosis assay by annexin-V/PI double staining, A549; details: A549, 24 h, 75 µM; control 7.80%
# Protocol: as §2
# A549 cells [5] = experiment: MTT cytotoxicity assay, A549; details: Homo sapiens, A549, 24 h, MTT, 24 h incubation; read-out: IC50 µM ± SD against A549
# Excerpt: A549 cell line (lung carcinoma from human) (European Collection of Cell Culture) and HT-29 cell line (colorectal adenocarcinoma from human) (American Type Culture Collection) were chosen to evaluate the cytotoxicity of novel compounds.
# (§3) The MTT assay was used to evaluate cell metabolic activity. The test principle is based on the determination of cell viability by measuring the metabolic activity in mitochondria. Enzymatically active mitochondria reduce the water-soluble MTT (3-(4,5-dimethylthiazol-2-yl)-2,5 diphenyltetrazoliumbromide) to blue–violet insoluble formazan. The number of viability cells is proportional to the colour intensity determined by photometric measurements (an analytical wavelength 570 nm) after dissolving the formazan in Dimethylsulfoxide (DMSO) (Serva) and Sorensen’s glycine buffer. MTT (Sigma Aldrich) was dissolved in Phosphate Buffered Saline (PBS) (PAN-Biotech) at a concentration of 0.5 mg/mL. Sorensen’s glycine buffer is made of 0.1 M glycine and 0.1 M NaCl, at pH 10.5. Studied compounds were dissolved in DMSO in order to receive stock solutions.
# (§4) For the assay, cells were seeded into 96-well plates at density 10^4 cells per well and cultured for 24 h at 37 °C and 5% CO2. Then medium was removed, and cells were exposed to the 100 µL of the compound solutions over a range of concentrations (final DMSO concentration was below 0.2%) or nothing but culture medium (blank control). Pure DMSO was used as a positive control. After 24 h of incubation with the compound solutions, medium was removed and 50 µL of the MTT solution was added to each well and incubated in the dark for additional 2 h at 37 °C. Then the MTT solution was carefully removed and 100 µL of DMSO was added. Plates were incubated for 10 min at room temperature. Finally, 5 µL of Sorensen Buffer was added to each well. Plate was swayed, and the absorbance was measured by using microplate reader (Synergy H1, BioTek, Winooski, VT, USA) at a wavelength of 570 nm. The cell viability was expressed as a percentage of the control values (blank). The experiments were done in triplicate.
# EA.hy926 cells = experiment: MTT cytotoxicity assay, EA.hy926; details: Homo sapiens, EA.hy 926, 24 h, MTT, 24 h incubation; read-out: IC50 µM ± SD against EA.hy926
# Excerpt: The EA.hy926 cells (the human umbilical vein, somatic cell hybrid) (American Type Culture Collection) are immortalized human umbilical vein endothelial cells. They have morphological, phenotypic and functional characteristics of human endothelial cells, without the limited lifespan. This cell line has been considered as a good model for anticancer drug screening and was chosen to evaluate the endothelial cytotoxicity of novel compounds.
# as §3, §4
smiles,measurement,setting,value
"COc1cc([C@@H]2c3cc4c(cc3[C@@H](O[C@@H]3O[C@@H]5CO[C@@H](C)O[C@H]5[C@H](O)[C@H]3O)[C@H]3COC(=O)[C@H]23)OCO4)cc(OC)c1O [Etoposide, reference compound]",Cells in G0/G1 phase,A549 cells [1],27.31%
same,Cells in G2/M phase,A549 cells [1],66.02%
same,Cells in S phase,A549 cells [1],6.67%
same,Total apoptotic cells,HT-29 cells [2],18.18%
same,Cells in G2/M phase,HT-29 cells [3],73.84%
same,Total apoptotic cells,A549 cells [4],43.46%
same,IC50,A549 cells [5],451 ± 18.3 µM
same,IC50,EA.hy926 cells,155 ± 9.81 µM
